“Also recorded” adds a separate entry of the source.
Tests used:
[1] = tested on: naïve CD4+ T cells; assay: In vitro Foxp3 induction assay: naïve CD4+ T cells co-cultured with DC, CD3 antibody, TGF-β, IL-2; type: cell-based, mouse; settings: purified SCFA
Method: For in vitro experiments, CD4+ T cells and CD11c+ dendritic cells were enriched using mouse CD4 (L3T4, Invitrogen) and mouse CD11c (N418, BioLegend) antibodies, respectively, that were biotinylated for use with streptavidin-Dynabeads (Invitrogen). Enriched cells were then sorted on a FACSAria II cell sorter (BD Biosciences) for in vitro assays. Intracellular staining for IL-17, IFN-γ, IL-4, IL-13 and Foxp3 was performed using the Foxp3 staining kit (eBiosciences). Cytokine staining was performed after re-stimulation with CD3 antibody and CD28 antibody (5 μg ml-1 each) in the presence of Golgi-plug (BD Biosciences) for 5 hours. DC were expanded in vivo by subcutaneous injection of B16 melanoma cells secreting FLT3-ligand into the left hind flank of mice as indicated. Once tumors were visible, spleens from injected animals were dissociated in RPMI 1640 medium containing 1.67 U mL-1 liberase TL (Roche) and 50 μg mL-1 DNAse I (Roche) for 20 min at 37° C. with shaking EDTA was then added at a final concentration of 5 mM to stop digestion and the resulting homogenate was processed for CD11c+ cell isolation using the MACS mouse CD11c (N418) purification kit (Miltenyi Biotec). In vitro Foxp3 induction assays were performed by co-culturing DC with 5.5×10^4 CD4+CD44loCD62LhiCD25-naïve T cells in the presence of 1 μg ml-1 of CD3 antibody, 1 ng mL-1 TGF-β, and 100 U ml-1 IL-2, in 96-well flat-bottom plates for 4 d. For Foxp3 induction in the presence of butyrate- or TSA-pretreated DC, TGF-β was used at 0.1 ng mL-1 final concentration. In vitro induction assays in the absence of DC were performed by incubating 5.5×10^4 naïve CD4+ T cells with 1 ng mL-1 TGF-β, 100 U ml-1 IL-2, and a 1:1 cell-to-bead ratio of CD3/CD28 T activator Dynabeads (Invitrogen). […] Proliferation of T cells was assessed by [3H]-thymidine incorporation during the final 8 h of culture.

[2] = tested on: Flt3L-elicited DC; assay: Foxp3 induction by DC pre-treated with SCFA or TSA for 6 h, washed, co-cultured with naïve CD4+ T cells; type: cell-based, mouse; settings: DC pre-treated 6 h, then agent removed
Method: DC were expanded in vivo by subcutaneous injection of B16 melanoma cells secreting FLT3-ligand into the left hind flank of mice as indicated. Once tumors were visible, spleens from injected animals were dissociated in RPMI 1640 medium containing 1.67 U mL-1 liberase TL (Roche) and 50 μg mL-1 DNAse I (Roche) for 20 min at 37° C. with shaking EDTA was then added at a final concentration of 5 mM to stop digestion and the resulting homogenate was processed for CD11c+ cell isolation using the MACS mouse CD11c (N418) purification kit (Miltenyi Biotec).
(§1) In vitro Foxp3 induction assays were performed by co-culturing DC with 5.5×10^4 CD4+CD44loCD62LhiCD25-naïve T cells in the presence of 1 μg ml-1 of CD3 antibody, 1 ng mL-1 TGF-β, and 100 U ml-1 IL-2, in 96-well flat-bottom plates for 4 d. For Foxp3 induction in the presence of butyrate- or TSA-pretreated DC, TGF-β was used at 0.1 ng mL-1 final concentration. In vitro induction assays in the absence of DC were performed by incubating 5.5×10^4 naïve CD4+ T cells with 1 ng mL-1 TGF-β, 100 U ml-1 IL-2, and a 1:1 cell-to-bead ratio of CD3/CD28 T activator Dynabeads (Invitrogen). For in vitro suppression assays, 4×10^4 naïve CD4+ T cells were FACS-sorted from B6 mice and cultured with graded numbers of CD4+Foxp3+ Treg cells FACS-sorted from Foxp3GFP mice treated with antibiotics and with or without butyrate, in the presence of […] irradiated T cell-depleted splenocytes and 1 μg ml-1 CD3 antibody in a 96-well round-bottom plate for 80 h. Proliferation of T cells was assessed by [3H]-thymidine incorporation during the final 8 h of culture.

[3] = tested on: Foxp3+ Treg cells; assay: SCFA in drinking water to AVNM-treated mice, flow cytometric analysis of Foxp3+ Treg cell subsets; type: in vivo; settings: for colonic Treg cells (accumulation of Treg cells in the colon): SCFA in drinking water; for Treg cell subsets in the spleen: drinking water, AVNM-treated CNS1-sufficient mice
From the text: Fox[…] (CNS1 knockout), Foxp3GFP, Foxp3Thy1.1 and Gpr109a-/- mice were used in the experiments as previously described (Zheng. Y. et al. Nature, 2010, 463, 808-12; Fontenot, J. D. et al. Immunity, 2005, 22, 329-41; Kim, J. M., et al. Nat Immunol, 2007, 8, 191-7). Male C57BL/6 (B6) mice were purchased from the Jackson Laboratory and groups of 5 co-housed mice were randomly assigned to treatment vs. control groups after confirmation that age and weight were in accordance between groups. Male mice were used for all experiments. All strains were maintained in the Sloan-Kettering Institute animal facility in accordance with institutional guidelines. Mice were sacrificed by CO2 asphyxiation then blindly processed for tissue harvest thereafter. For antibiotic treatment, mice at 5-6 weeks of age were treated with 1 g L-1 metronidazole (Sigma-Aldrich), 0.5 g L-1 vancomycin (Hospira), 1 g L-1 ampicillin (Sigma-Aldrich) and 1 g L-1 kanamycin (Fisher Scientific) dissolved in drinking water. […] Butyrate was administered to mice after prior treatment with antibiotics for at least 1 week. For in vitro experiments, CD4+ T cells and CD11c+ dendritic cells were enriched using mouse CD4 (L3T4, Invitrogen) and mouse CD11c (N418, BioLegend) antibodies, respectively, that were biotinylated for use with streptavidin-Dynabeads (Invitrogen). Enriched cells were then sorted on a FACSAria II cell sorter (BD Biosciences) for in vitro assays. Intracellular staining for IL-17, IFN-γ, IL-4, IL-13 and Foxp3 was performed using the Foxp3 staining kit (eBiosciences). Cytokine staining was performed after re-stimulation with CD3 antibody and CD28 antibody (5 μg ml-1 each) in the presence of Golgi-plug (BD Biosciences) for 5 hours.

[4] = target: T1, GPR43 (Mus musculus, UniProt Q8VCK6); settings: Smith et al. Science 2013; cited from earlier work
T1 sequence (Q8VCK6 1-330): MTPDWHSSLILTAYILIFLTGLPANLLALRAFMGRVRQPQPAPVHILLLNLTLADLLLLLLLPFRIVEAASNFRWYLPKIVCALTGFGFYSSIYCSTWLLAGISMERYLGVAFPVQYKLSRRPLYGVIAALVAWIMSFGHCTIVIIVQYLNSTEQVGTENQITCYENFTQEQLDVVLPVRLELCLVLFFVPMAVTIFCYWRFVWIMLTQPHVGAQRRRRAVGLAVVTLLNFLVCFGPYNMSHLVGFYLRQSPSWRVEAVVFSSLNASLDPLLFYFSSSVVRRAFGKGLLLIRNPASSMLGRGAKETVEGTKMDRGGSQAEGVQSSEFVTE

[5] = tested on: naïve CD4+ T cells; assay: In vitro Foxp3 induction in the absence of DC (CD3/CD28 antibody-coated beads, TGF-β); type: cell-based, mouse; settings: purified naive CD4+ T cells, CD3 and CD28 antibody-coated beads
Method: as §1

[6] = LC-MS analysis of butyrate in serum; type: in vivo; settings: AVNM-treated mice given butyrate in drinking water vs unperturbed SPF mice
From the text: Foxp3ΔCNS1 (CNS1 knockout), Foxp3GFP, Foxp3Thy1.1 and Gpr109a−/− mice were used in the experiments as previously described (Zheng. Y. et al. Nature, 2010, 463, 808-12; Fontenot, J. D. et al. Immunity, 2005, 22, 329-41; Kim, J. M., et al. Nat Immunol, 2007, 8, 191-7). Male C57BL/6 (B6) mice were purchased from the Jackson Laboratory and groups of 5 co-housed mice were randomly assigned to treatment vs. control groups after confirmation that age and weight were in accordance between groups. Male mice were used for all experiments. All strains were maintained in the Sloan-Kettering Institute animal facility in accordance with institutional guidelines. Mice were sacrificed by CO2 asphyxiation then blindly processed for tissue harvest thereafter. For antibiotic treatment, mice at 5-6 weeks of age were treated with 1 g L-1 metronidazole (Sigma-Aldrich), 0.5 g L-1 vancomycin (Hospira), 1 g L-1 ampicillin (Sigma-Aldrich) and 1 g L-1 kanamycin (Fisher Scientific) dissolved in drinking water. For butyrate, acetate and propionate administration, each SCFA was added to drinking water containing antibiotics (as described above) at a final concentration of 36 mM and pH-adjusted, if needed, to match that of antibiotic-only water. Butyrate was administered to mice after prior treatment with antibiotics for at least 1 week. […]

[7] = Butyrate levels in fecal pellets after butyrate in drinking water; type: in vivo; settings: AVNM-treated mice given butyrate via drinking water
Method: Stool samples were collected directly into sterile tubes from live mice and snap-frozen before preparation of material for SCFA quantification by HPLC or LC-MS (see corresponding section for further sample processing).
HPLC analysis was performed for analysis of derivatized stool extracts as previously described (Torii, T. et al. Ann. Clin. Biochem, 2010, 47, 447-452). Briefly, flash-frozen stool samples were extracted with 70% ethanol and brought to a final concentration of 0.1 μg μL-1. Debris was removed by centrifugation and 300 μL of supernatant was transferred to a new tube and combined with 50 μL of internal standard (2-ethylbutyric acid, 200 mM in 50% aqueous methanol), 300 μL of dehydrated pyridine 3% v/v (Wako) in ethanol, 300 μL of 250 mM N-(3-dimethlaminopropyl)-N′-ethylcarbodiimide hydrochloride (Sigma-Aldrich) in ethanol, and 300 μL of 20 mM 2-nitrophenylhydrazine hydrochloride (Tokyo Chemical) in ethanol. Samples were incubated at 60° C. for 20 min and 200 μL of potassium hydroxide 15% w/v dissolved 80/20 in methanol was added to stop the derivatization reaction. […] Derivatized SCFA were resuspended in 100 μL of mobile phase (below) and 20 μL was chromatographed on a Shimadzu HPLC system equipped with a Vydac 2.1×30 mm 300 A C18 column run at 200 μL min-1 in methanol/acetonitrile/TFA (30%/16%/0.1% v/v) and monitored for absorbance at 400 nm.

[8] = tested on: Foxp3 promoter and CNS1 enhancer; assay: H3K27Ac ChIP-qPCR at the Foxp3 locus; type: cell-based, mouse; settings: 3 days, CD3/CD28 beads and TGF-β
Method: H3K27Ac ChIP-qPCR was performed as previously described (Samstein, R. M. et al. Cell, 2012, 151, 153-66). Briefly, fixed cells were lysed and mono- and poly-nucleosomes were obtained by partial digestion with micrococcal nuclease (12,000 U mL-1) in 1 min at 37° C. EDTA was added to a final concentration of 50 mM to stop the reaction, and digested nuclei were resuspended in nuclear lysis buffer with 1% SDS. After sonication, 1 ug H3K27Ac-specific antibody (Abcam, ab4729) was used to precipitate H3K27Ac-bound chromatin. Washing and de-crosslinking was performed as described (Samstein, R. M. et al. Cell, 2012, 151, 153-66).

[9] = tested on: Flt3L-elicited CD11c+ dendritic cells; assay: DC viability by live/dead staining and flow cytometry; type: cell-based, mouse; settings: butyrate pretreatment 6 h

SMILES | TGF-β-dependent generation of Foxp3+ cells in vitro [1] | ability of pre-treated DCs to induce Foxp3 expression in naïve CD4+ T cells [2] | colonic Treg cells (accumulation of Treg cells in the colon) ([3]; AVNM-treated mice) | Treg cell subsets in the spleen [3] | accumulation of Treg cells in the colon by activating GPR43 [4] | increase in numbers of Foxp3+ cells in DC-free cultures [5] | non-lymphoid tissue histology ([3]; butyrate in drinking water, AVNM-treated mice) | butyrate serum levels [6] | levels of butyrate in fecal pellets [7] | increase in H3K27-Ac occupancy ([8]; Foxp3+ cells) | increase in H3K27-Ac at the Foxp3 promoter and CNS1 enhancer ([8]; Foxp3− cells) | DC viability [9]
CC(C)CC(=O)O [isovalerate] | augmented |  |  |  |  |  |  |  |  |  |  | 
CC(=O)O [acetate] | not | not | promoted accumulation | did not increase | promote accumulation |  |  |  |  |  |  | 
CCCC(=O)O [butyrate] |  |  |  |  |  | < 1.5 fold | remained unchanged | comparable to those found in unperturbed SPF mice | not reconstituted | ~30% | 3 fold | no detrimental effect; also recorded: maintain
CCC(=O)O [propionate] | augmented | to a lesser extent | promoted accumulation | increased | promote accumulation |  |  |  |  |  |  | 

Reference: patent publication US20160271086A1, “METHODS AND COMPOSITIONS FOR INDUCING REGULATORY T-CELL GENERATION” (SLOAN-KETTERING INSTITUTE FOR CANCER RESEARCH, priority 2013, published 2016)
